Experimental data from patent US12702694B2, “Methods for identification, assessment, prevention, and treatment of metabolic disorders using SLIT2” (Dana-Farber Cancer Institute, Inc., priority 2015, dated 2026).

Tests used:
[1] = test system: brown fat; conditions: humans; Cypess et al. (2015); cited from earlier work
[2] = test system: Slit2; assay: Slit2 mRNA in adipose tissue after daily CL 316,243 injections; assay type: in vivo, Mus musculus; conditions: 3 days treatment, daily injections 1 mg/kg; did not reach statistical significance; FIG. 2F
Protocol: RNA was extracted from cultured cells or frozen tissue samples using TRIzol®, purified with QIAGEN RNeasy® minicolumns. Normalized RNA was reversed transcribed using a high-capacity cDNA reverse transcription lot (Applied Biosystems) and cDNA was analyzed by qRT-CPR. Relative mRNA levels were calculated using the comparative CT method and normalized to cyclophilin […]. All primers used are listed with their sequences in Table 3 as follows: […]

[3] = test system: primary inguinal cells; assay: Thermogenic gene expression in Slit2-C transduced primary inguinal cells co-treated with inhibitors; assay type: cell-based, Mus musculus
Protocol: Inguinal and brown stromal-vascular fractions were obtained from 6 weeks old male or newborn mice (postnatal days 5-10) for white and brown fat cultures, respectively. Inguinal fat tissue was dissected and washed with PBS, minced and digested for 45 min at 37° C. in PBS containing 10 mM CaCl2), 2.4 U/ml dispase II (Roche) and 10 mg/ml collagenase D (Roche). Brown fat tissue was dissected, washed with PBS, minced and digested for 45 min at 37° C. in PBS containing 1.3 mM CaCl2, 123 mM NaCl, 5 mM KCl, 5.0 mM glucose, 100 mM HEPES, 4% BSA and 1.5 mg/ml collagenase B (Roche). Digested tissue was filtered through a 100-μm cell strainer and centrifuged at 600 g for 10 min. Pelleted inguinal stromal-vascular cells were grown to confluence and induced to differentiate by an adipogenic cocktail containing 0.02 μM insulin, 1 μM rosiglitazone, 5 μM dexamethasone, 0.5 μM isobuthylmethylxanthine. For differentiation of brown fat cells, 1 nM T3 and 125 μM indomethacin were also added to the adipogenic cocktail. Two days after induction, cells were maintained in adipocyte culture medium containing 0.02 μM insulin and 1 μM rosiglitazone. Where indicated, cells were treated with forskolin (10 μM), norepinephrine (100 nM) for 4 h or with recombinant proteins (1 μg/ml, R&D systems) for 24 h or for the indicated times. For adenoviral overexpression of Slit2-FL, Slit2-N, Slit2-C, LacZ or Cre, virus was added at day 2 of differentiation at a titer of 10^8 particles/well and cells were analyzed at day 6-7. […]
RNA was extracted from cultured cells or frozen tissue samples using TRIzol®, purified with QIAGEN RNeasy® minicolumns. Normalized RNA was reversed transcribed using a high-capacity cDNA reverse transcription lot (Applied Biosystems) and cDNA was analyzed by qRT-CPR. Relative mRNA levels were calculated using the comparative CT method and normalized to cyclophilin […]. […]

[4] = test system: PKA signaling pathway; assay: Western blotting of PKA and related signaling in primary inguinal cells; assay type: cell-based, Mus musculus; conditions: 20 nM NE; FIG. 10M
[5] = test system: PKA signaling pathway; assay: as above; assay type: cell-based, Mus musculus; conditions: H89 30 μM, 2 h, primary inguinal cells; FIG. 10C
Protocol: Inguinal and brown stromal-vascular fractions were obtained from 6 weeks old male or newborn mice (postnatal days 5-10) for white and brown fat cultures, respectively. Inguinal fat tissue was dissected and washed with PBS, minced and digested for 45 min at 37° C. in PBS containing 10 mM CaCl2), 2.4 U/ml dispase II (Roche) and 10 mg/ml collagenase D (Roche). Brown fat tissue was dissected, washed with PBS, minced and digested for 45 min at 37° C. in PBS containing 1.3 mM CaCl2, 123 mM NaCl, 5 mM KCl, 5.0 mM glucose, 100 mM HEPES, 4% BSA and 1.5 mg/ml collagenase B (Roche). Digested tissue was filtered through a 100-μm cell strainer and centrifuged at 600 g for 10 min. Pelleted inguinal stromal-vascular cells were grown to confluence and induced to differentiate by an adipogenic cocktail containing 0.02 μM insulin, 1 μM rosiglitazone, 5 μM dexamethasone, 0.5 μM isobuthylmethylxanthine. For differentiation of brown fat cells, 1 nM T3 and 125 μM indomethacin were also added to the adipogenic cocktail. Two days after induction, cells were maintained in adipocyte culture medium containing 0.02 μM insulin and 1 μM rosiglitazone. Where indicated, cells were treated with forskolin (10 μM), norepinephrine (100 nM) for 4 h or with recombinant proteins (1 μg/ml, R&D systems) for 24 h or for the indicated times. For adenoviral overexpression of Slit2-FL, Slit2-N, Slit2-C, LacZ or Cre, virus was added at day 2 of differentiation at a titer of 10^8 particles/well and cells were analyzed at day 6-7. Where indicated, cells were treated with the drugs Erlotinib (SelleckChem), Lapatinib (Santa Cruz), PD0325901 (Santa Cruz), Propranolol (SelleckChem), H89 dihydrochloride (Santa Cruz), SQ-22536 (Santa Cruz) for indicated time points and concentrations.
For Western blotting, homogenized tissues, whole cell lysates, or concentrated serum free conditioned medium were lysed in RIPA buffer containing protease inhibitor cocktail (Thermo Scientific) and phosphatase inhibitor cocktail (Thermo Scientific), separated by SDS-PAGE and transferred to Immobilon-P® membranes (Millipore). For Western blotting of plasma samples, 1 μl of plasma was prepared containing 2× sample buffer (Invitrogen) with reducing agent, boiled and analyzed using Western blot against V5, FLAG, or the indicated antibody. V5-antibody was from Life Technologies and anti-Flag M2-HRP (A8592) from Sigma Aldrich. Anti-Slit2 antibody used was from Abcam (Abcam ab134166). Phospho-PKA Substrate, phospho-PKC Substrate, phospho-ERK1/2, total ERK, phospho-AKT, total AKT, phospho-AMPK, total AMPK, phospho-ATGL, ATGL, phospho-EGFR and EGFR were from Cell Signaling. Protein array was from R&D Systems (Proteome Profiler Mouse Phospho-RTK Array Kit, ARY014). Silverstain (SilverQuest™ Silver Staining Kit, LC6070) was purchased from Thermo Fisher.

[6] = test system: cell surface of primary inguinal adipocytes; assay: Cell surface binding by confocal laser scanning microscopy; set-up: species or system Mus musculus; conditions: purified FLAG-tagged protein, live adipocytes incubated at 4° C.; FIGS. 10L, 11E
Protocol: Live, primary differentiated adipocytes were incubated with recombinant Slit2-C FLAG-tagged protein for 1 h at 4° C. before fixation and staining with a fluorescent antibody for visualization of cell-surface bound proteins using a confocal laser scanning microscope.
Experiments were performed using a Nikon Ti w/A1R confocal inverted microscope equipped with a Nikon Plan Apo 60x/NA 1.4 oil immersion objective lens using excitation wavelengths of 405 and 561 nm. All experiments were performed under confocal imaging conditions (pinhole <1 airy unit) and images taken with the same laser settings. Image analysis was performed using the Nikon Elements acquisition software. Primary inguinal cells differentiated until day 5 was gently trypsinized and seeded onto poly-D-lysine-coated coverslips (Corning Biocoat 12 mm German Glass coverslips, #08-774-385) in a 6-well plate at a density of 10,000 cells per well in growth medium. On the next day, cell surface binding was performed by adding 1 μg/ml purified protein to cells or FLAG peptide in PBS in serum-containing medium for 1 h at 4° C. on ice. Cells were washed three times in PBS, fixed in 4% paraformaldehyde for 10 min at 4° C., and washed with PBS three times before blocking with 5% BSA in PBS for 1 h at room temperature. Cells treated with protein or FLAG peptide alone were stained using 1:200 anti-Flag M2-HRP overnight at 4° C. […]

Molecule: Nc1nc(CC(=O)Nc2ccc(CCNC[C@H](O)c3ccccc3)cc2)cs1 [mirabegron]
- brown fat activation [1]: apparent activation of brown fat
- resting metabolic rate [1]: increased resting metabolic rate

Molecule: C[C@H](Cc1ccc2c(c1)OC(C(=O)[O-])(C(=O)[O-])O2)NC[C@H](O)c1cccc(Cl)c1.[Na+].[Na+] [CL316, 243]
- Slit2 gene expression in iWAT [2]: trend to an increase

Molecule: CC(C)NCC(O)COc1cccc2ccccc12 (stereo not drawn) [Propranolol]
- inhibition of Slit2-C induced thermogenesis ([3]; propranolol 100 nM for 24 h, FIG. 10H): did not inhibit

Molecule: NC[C@H](O)c1ccc(O)c(O)c1 [NE, norepinephrine]
- time of treatment to full PKA phosphorylation response [4]: ≤ 5 min

Molecule: Cl.Cl.O=S(=O)(NCCNC/C=C/c1ccc(Br)cc1)c1cccc2cnccc12 [H89, H89 dihydrochloride]
- phosphorylation of PKA substrates [5]: significantly reduced
- Dio2 mRNA in cells receiving Slit2-C ([3]; H89 30 μM, FIG. 10D): down to baseline levels
- reduction of Ucp1 mRNA in cells receiving Slit2-C ([3]; H89 30 μM, FIG. 10D): 50%

B1: Pm20D1: another FLAG-tagged protein secreted from thermogenic adipocytes, control for specific staining (protein)
chain: STGPRSRENRGASRIPSQFSEEERVAIKEALKGAIQIPTVSFSHEESNTTALAEFGEYIRKAFPTVFHSSLVQHEVVAKYSHLFTIQGSDPSLQPYMLMAHIDVVPAPEEGWEVPPFSGLERNGFIYGRGALDNKNSVMAILHALELLLIRNYSPKRSFFIALGHDEEVSGEKGAQKISALLQARGVQLAFLVDEGSFILEGFIPNLEKPVAMISVTEKGALDLMLQVNMTPGHSSAPPKETSIGILSAAVSRLEQTPMPNMFGGGPLKKTMKLLANEFSFPINIVLRNLWLFHPIVSRIMERNPITNALVRTTTALTMFNAGIKVNVIPPLAQATINCRIHPSQTVHEVLELVKNTVADDRVQLHVLRSFEPLPISPSDDQAMGYQLLQETIRSVFPEVDIVVPGICIANTDTRHYANITNGMYRFNPLPLNPQDFSGVHGINEKVSVQNYQNQVKFIFEFIQNADTYKEPVPHLHEL
modifications: left off: small tags and cut ends
notes: another FLAG-tagged protein secreted from thermogenic adipocytes, control for specific staining
- binding to the cell surface of adipocytes [6]: very limited binding
